Data taken from US9018224B2, “Substituted cyclopropyl compounds useful as GPR119 agonists” (Merck Sharp & Dohme Corp., priority 2011, dated 2015).

molecular target: T1, human GPR119 (Homo sapiens, UniProt Q8TDV5); test: Measurement of GPR119 signaling by cAMP (LANCE cAMP kit or HTRF) in HEK293 cells transfected with human GPR119; format: cell-based; conditions: agonist cAMP response in HEK293 cells stably transfected with human GPR119; patent does not say which of the two cAMP formats (LANCE or HTRF)
T1 sequence (Q8TDV5 1-308 limits assumed): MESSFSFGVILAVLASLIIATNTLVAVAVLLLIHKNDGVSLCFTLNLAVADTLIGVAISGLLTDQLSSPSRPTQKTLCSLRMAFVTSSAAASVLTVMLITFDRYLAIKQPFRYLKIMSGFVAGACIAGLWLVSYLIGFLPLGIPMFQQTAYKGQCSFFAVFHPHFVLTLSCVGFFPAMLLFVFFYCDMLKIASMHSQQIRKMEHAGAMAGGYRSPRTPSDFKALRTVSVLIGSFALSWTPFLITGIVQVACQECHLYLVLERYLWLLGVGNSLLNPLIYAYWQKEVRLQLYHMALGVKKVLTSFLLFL
Procedure: Measurement of GPR119 Signaling Using LANCE 384-Well cAMP Kit
The adenylate cyclase assay was constructed following the LANCE™ cAMP Kit (Perkin Elmer, AD0264) instructions. […] The reaction was stopped by incubating with the supplied detection buffer containing the europium chelate of the Eu-SA/Biotin-cAMP tracer for 3 hours. The assay was performed in duplicate in a 384 well plate for duplicate plates. […] Basal activity was determined using a DMSO control and maximum response was defined as cAMP stimulation produced by an internal agonist control. Standard cAMP concentrations were assayed concurrently for conversion of fluorescence signal to cAMP level. The data was analyzed using 4-parameter curve fit in Microsoft Excel
Measurement of GPR119 Signaling Using a Cyclic AMP (cAMP) Homogenous Time Resolved Fluorescence (HTRF) Assay
Chinese hamster ovary (CHO) cell lines stably transfected with the permissive guanine nucleotide binding protein alpha 15 (Gα15) and murine GPR119 were maintained in DMEM media containing FBS, penicillin-streptomycin, puromycin, and G418 (geneticin). […] Agonist activation of the GPR119 receptor was measured in receptor transfected cells described above, treated with compounds of this invention, using a commercial homogenous time resolved fluorescence (HTRF) kit for measurement of cAMP (CisBio, Bedford, Mass.). The assay was performed in 96-well half-volume plates (murine) or 384-well plates (human) following the manufacturers instructions. Briefly, suspended cells were incubated with a dose titration of test compound at room temperature for 60 min, lysed, and incubated with HTRF reagents for an additional 60 min. The plate was read using an Envision multilabel reader (Perkin Elmer) adjusted to read time resolved fluorescence and the cAMP concentrations were extrapolated from a cAMP calibration curve. […] The concentration of test compound required to stimulate a half-maximal response (EC50), and efficacy as compared to an internal agonist control, was determined from a sigmoidal 4-parameter curve fit of the resulting plot of normalized activity versus compound concentration.

SMILES	EC50 [nM]
O=C(Cc1ccc(OCC[C@@H]2C[C@@H]2C2CCN(c3ncc(Cl)cn3)CC2)cc1F)NC1CC1(F)F (stereo partly drawn) [Example 88]	1.7
CC1CC(C)CN(C(=O)Cc2ccc(OCC[C@@H]3C[C@@H]3C3CCN(c4ncc(Cl)cn4)CC3)cc2F)C1 (stereo partly drawn) [Example 89]	8.6
CC1CCC(C)N1C(=O)Cc1ccc(OCC[C@@H]2C[C@@H]2C2CCN(c3ncc(Cl)cn3)CC2)cc1F (stereo partly drawn) [Example 90]	7.2
CC1(NC(=O)Cc2ccc(OCC[C@@H]3C[C@@H]3C3CCN(c4ncc(Cl)cn4)CC3)cc2F)CCCCC1 [Example 91]	9.3
CC1(NC(=O)Cc2ccc(OCC[C@@H]3C[C@@H]3C3CCN(c4ncc(Cl)cn4)CC3)cc2F)CCC1 [Example 92]	4
CC1(NC(=O)Cc2ccc(OCC[C@@H]3C[C@@H]3C3CCN(c4ncc(Cl)cn4)CC3)cc2F)CC1 [Example 93]	3.7
CC1(NC(=O)Cc2ccc(OCC[C@@H]3C[C@@H]3C3CCN(c4ncc(Cl)cn4)CC3)cc2F)CCCC1 [Example 94]	6.5
O=C(Cc1ccc(OCC[C@@H]2C[C@@H]2C2CCN(c3ncc(Cl)cn3)CC2)cc1F)NC1CCC(F)(F)C1 (stereo partly drawn) [Example 95]	2.3
CC1(CNC(=O)Cc2ccc(OCC[C@@H]3C[C@@H]3C3CCN(c4ncc(Cl)cn4)CC3)cc2F)CCC1 [Example 96]	5.1
CC1(C)CCN1C(=O)Cc1ccc(OCC[C@@H]2C[C@@H]2C2CCN(c3ncc(Cl)cn3)CC2)cc1F [Example 97]	3.2
CCN(CC)C(=O)Cc1ccc(OCC[C@@H]2C[C@@H]2C2CCN(c3ncc(Cl)cn3)CC2)cc1F [Example 98]	9.2
CC1CCN(C(=O)Cc2ccc(OCC[C@@H]3C[C@@H]3C3CCN(c4ncc(Cl)cn4)CC3)cc2F)CC1 [Example 99]	4
CCC(C)NC(=O)Cc1ccc(OCC[C@@H]2C[C@@H]2C2CCN(c3ncc(Cl)cn3)CC2)cc1F (stereo partly drawn) [Example 100]	1.8
O=C(Cc1ccc(OCC[C@@H]2C[C@@H]2C2CCN(c3ncc(Cl)cn3)CC2)cc1F)NCC1(O)CC1 [Example 101]	5.2
CCN(C(=O)Cc1ccc(OCC[C@@H]2C[C@@H]2C2CCN(c3ncc(Cl)cn3)CC2)cc1F)C(C)C [Example 102]	3
CC[C@@H](CO)NC(=O)Cc1ccc(OCC[C@@H]2C[C@@H]2C2CCN(c3ncc(Cl)cn3)CC2)cc1F [Example 103]	9.7
COCCN(C)C(=O)Cc1ccc(OCC[C@@H]2C[C@@H]2C2CCN(c3ncc(Cl)cn3)CC2)cc1F [Example 104]	1.3
CC(F)(F)CNC(=O)Cc1ccc(OCC[C@@H]2C[C@@H]2C2CCN(c3ncc(Cl)cn3)CC2)cc1F [Example 105]	1.5
NC(=O)C1CCN1C(=O)Cc1ccc(OCC[C@@H]2C[C@@H]2C2CCN(c3ncc(Cl)cn3)CC2)cc1F (stereo partly drawn) [Example 106]	4.3
COC(=O)C1CN1C(=O)Cc1ccc(OCC[C@@H]2C[C@@H]2C2CCN(c3ncc(Cl)cn3)CC2)cc1F (stereo partly drawn) [Example 107]	8.9
O=C(Cc1ccc(OCC[C@@H]2C[C@@H]2C2CCN(c3ncc(Cl)cn3)CC2)cc1F)N1CCCC1CO (stereo partly drawn) [Example 108]	2.5
CC(C)CCN(C)C(=O)Cc1ccc(OCC[C@@H]2C[C@@H]2C2CCN(c3ncc(Cl)cn3)CC2)cc1F [Example 109]	10.3
O=C(Cc1ccc(OCC[C@@H]2C[C@@H]2C2CCN(c3ncc(Cl)cn3)CC2)cc1F)NC(C1CC1)C1CC1 [Example 110]	5.8
O=C(Cc1ccc(OCC[C@@H]2C[C@@H]2C2CCN(c3ncc(Cl)cn3)CC2)cc1F)NC1CCCC1F (stereo partly drawn) [Example 111]	3

Next, values leading:

EC50 [nM]	SMILES
6.1	O=C(Cc1ccc(OCC[C@@H]2C[C@@H]2C2CCN(c3ncc(Cl)cn3)CC2)cc1F)NCC1CCCCC1 [Example 112]
3.9	C[C@H](CO)NC(=O)Cc1ccc(OCC[C@@H]2C[C@@H]2C2CCN(c3ncc(Cl)cn3)CC2)cc1F [Example 113]
3.7	CCC(CO)NC(=O)Cc1ccc(OCC[C@@H]2C[C@@H]2C2CCN(c3ncc(Cl)cn3)CC2)cc1F (stereo partly drawn) [Example 114]
2.2	COC(=O)C1CN(C(=O)Cc2ccc(OCC[C@@H]3C[C@@H]3C3CCN(c4ncc(Cl)cn4)CC3)cc2F)C1 [Example 115]
9.2	CC(CO)NC(=O)Cc1ccc(OCC[C@@H]2C[C@@H]2C2CCN(c3ncc(Cl)cn3)CC2)cc1F (stereo partly drawn) [Example 116]
1.7	C[C@H]1CCCN1C(=O)Cc1ccc(OCC[C@@H]2C[C@@H]2C2CCN(c3ncc(Cl)cn3)CC2)cc1F [Example 117]
1.1	O=C(Cc1ccc(OCC[C@@H]2C[C@@H]2C2CCN(c3ncc(Cl)cn3)CC2)cc1F)N1CC(n2ccnc2)C1 [Example 118]
0.81	O=C(Cc1ccc(OCC[C@@H]2C[C@@H]2C2CCN(c3ncc(Cl)cn3)CC2)cc1F)N1CC(n2cccn2)C1 [Example 119]
1	O=C(Cc1ccc(OCC[C@@H]2C[C@@H]2C2CCN(c3ncc(Cl)cn3)CC2)cc1F)N1Cc2cn[nH]c2C1 [Example 120]
2.2	Cc1nc2c([nH]1)CN(C(=O)Cc1ccc(OCC[C@@H]3C[C@@H]3C3CCN(c4ncc(Cl)cn4)CC3)cc1F)C2 [Example 121]
0.66	O=C(Cc1ccc(OCC[C@@H]2C[C@@H]2C2CCN(c3ncc(Cl)cn3)CC2)cc1F)N1CC(c2cccnc2)C1 [Example 122]
0.78	O=C(Cc1ccc(OCC[C@@H]2C[C@@H]2C2CCN(c3ncc(Cl)cn3)CC2)cc1F)N1Cc2cccnc2C1 [Example 123]
3.2	CC(C)(O)Cn1cc2c(n1)CN(C(=O)Cc1ccc(OCC[C@@H]3C[C@@H]3C3CCN(c4ncc(Cl)cn4)CC3)cc1F)C2 [Example 124]
0.96	O=C(Cc1ccc(OCC[C@@H]2C[C@@H]2C2CCN(c3ncc(Cl)cn3)CC2)cc1F)N1CCc2nccnc2C1 [Example 125]
1.5	O=C(Cc1ccc(OCC[C@@H]2C[C@@H]2C2CCN(c3ncc(Cl)cn3)CC2)cc1F)N1CCc2ncncc2C1 [Example 127]
2.3	O=C(Cc1ccc(OCC[C@@H]2C[C@@H]2C2CCN(c3ncc(Cl)cn3)CC2)cc1F)N1CCc2ccncc2C1 [Example 128]
0.29	O=C(Cc1ccc(OCC[C@@H]2C[C@@H]2C2CCN(c3ncc(Cl)cn3)CC2)cc1F)N1CCc2cncnc2C1 [Example 129]
1.1	O=C(Cc1ccc(OCC[C@@H]2C[C@@H]2C2CCN(c3ncc(Cl)cn3)CC2)cc1F)N1CCc2cccnc2C1 [Example 130]
8	O=C(Cc1ccc(OCC[C@@H]2C[C@@H]2C2CCN(c3ncc(Cl)cn3)CC2)cc1F)N1CCCc2ncccc21 [Example 131]
0.55	O=C(Cc1ccc(OCC[C@@H]2C[C@@H]2C2CCN(c3ncc(Cl)cn3)CC2)cc1F)N1CCn2cc(C(F)(F)F)nc2C1 [Example 132]
0.91	O=C(Cc1ccc(OCC[C@@H]2C[C@@H]2C2CCN(c3ncc(Cl)cn3)CC2)cc1F)N1CCn2c(nnc2C(F)(F)F)C1 [Example 133]
